Measured values taken from patent US9505735B2, “Compounds for treating infectious diseases” (Whitehead Institute for Biomedical Research, priority 2012, dated 2016).

Tests used:
[1] = tested on: unfolded protein response; test: Unfolded protein response GFP reporter (UPRE-GFP), flow cytometry; format: cell-based, S. cerevisiae; details: 5 hours
Method: Induction of the unfolded protein response in cells carrying a GFP reporter construct was monitored by flow cytometry after exposure to serial dilutions of the indicated compounds for 5 hrs.
The plasmid pRS304-4XUPRE-GFP was linearized and integrated into the TRP1 locus of S. cerevisiae (W303) to construct a reporter strain as previously described (Cox, et al. (1993) Cell 73, 1197-1206; Pollard, et al. (1998) Mol Cell 1, 171-182). Reporter cells were grown to log phase and exposed to compound at 23° C. for 5 hours before analysis. GFP reporter induction was monitored on a Guava EasyCyte Plus cytometer. The average mean channel fluorescence of duplicate samples was determined, and the experiment was performed twice with similar results.

[2] = tested on: NIH 3T3 cells; test: Co-culture of mammalian cells and C. albicans: mammalian cells; format: cell-based; details: 40 μM, 24 hours
Method: For co-culture experiments, confluent layers of NIH 3T3 cells were established in 6-well plates. The following day, the medium was replaced with RPMI1640+10% FBS containing the amphotericin-resistant strain CaAmphR at […] colony forming units per ml and 40 μM gepinacin or an equivalent amount of DMSO. Co-cultures were incubated for 24 hours at 37° C. in a micro-isolator box. Images were acquired on a Nikon Eclipse TS100 microscope at 40×.
Having determined the target of gepinacin in fungi, gepinacin's effect on the human ortholog of Gwt1, PIG-W, was examined. To determine if gepinacin remained active under mammalian cell culture conditions cultured fungi were cultured (either an amphotericin B-resistant (FIG. 3a) or fluconazole-resistant (data not shown) isolate of C. albicans) and mammalian cells together with 40 μM gepinacin. […] PIG-W (and GPI anchor biosynthesis) is not essential for mammalian cells in culture.

[3] = tested on: C. albicans Sc5314 cell surface β-glucan; test: β-Glucan staining (microscopy, flow cytometry); format: cell-based
Method: Overnight treatment and staining of C. albicans strain Sc5314 was performed as previously described for caspofungin treatment using YPD media at 30° C. to maintain growth in the yeast form (Wheeler, et al. (2006) PLoS Pathog 2, e35). Antibody to (1-3) β-D-glucan was obtained from Biosupplies (Australia). Cells were propidium iodide (PI) stained to assess viability and only PI-negative cells were analyzed. Microscopy was performed on a Nikon Eclipse microscope with a 100× oil objective.

[4] = tested on: Emp24-GFP; test: Emp24-GFP distribution (microscopy); format: cell-based, S. cerevisiae; details: 5 μM, overnight
Method: (A) Anti-fungal susceptibility testing of gepinacin using suppressor strains 20-1 and 20-2. (B) The sequence of EMP24 in S. cerevisiae is shown with the location of mutations found by whole genome sequencing in the suppressor strains 20-1 and 20-2 indicated. The sequence in FIG. 4B corresponds to SEQ ID NO: 1. (C) Micrographs showing the redistribution of Emp24-GFP after overnight incubation with 5 μM gepinacin. Green fluorescence and DIC images are merged in the lower panels. Scale bar; 5 μm.
To determine if gepinacin does indeed alter trafficking and change Emp24 distribution yeast in which GFP was fused in frame to the 3′ end of genomic EMP24 were examined.

COc1ccc(NC(=O)COc2cccc(OCC(C)C)c2)cc1 [gepinacin]
activation of the unfolded protein response (GFP reporter) [1]: massive, concentration-dependent activation | effect on mammalian cells in co-culture [2]: no effect | increase in median channel fluorescence (β-glucan, flow cytometry) versus control [3]: 4.5 fold | β-glucan presentation on the cell surface (immunostaining) ([3]; sub-lethal concentrations (5 μM)): dramatically increase | Emp24-GFP localisation [4]: dramatically re-localized into large, bright dotlike structures
